Assays:
MerTK [1] = target: T1, MerTK (Mus musculus, UniProt Q60805); assay: MerTK degradation in RAW264 cells (Western blot); format: cell-based; conditions: RAW264.7, 0.001-1 μM, 4 hour-incubation at 37° C., read-out: RAW264 Max % MerTK Degradation
T1 construct: endogenous in cells; host or cells: RAW264 cells
T1 sequence (Q60805 19-994): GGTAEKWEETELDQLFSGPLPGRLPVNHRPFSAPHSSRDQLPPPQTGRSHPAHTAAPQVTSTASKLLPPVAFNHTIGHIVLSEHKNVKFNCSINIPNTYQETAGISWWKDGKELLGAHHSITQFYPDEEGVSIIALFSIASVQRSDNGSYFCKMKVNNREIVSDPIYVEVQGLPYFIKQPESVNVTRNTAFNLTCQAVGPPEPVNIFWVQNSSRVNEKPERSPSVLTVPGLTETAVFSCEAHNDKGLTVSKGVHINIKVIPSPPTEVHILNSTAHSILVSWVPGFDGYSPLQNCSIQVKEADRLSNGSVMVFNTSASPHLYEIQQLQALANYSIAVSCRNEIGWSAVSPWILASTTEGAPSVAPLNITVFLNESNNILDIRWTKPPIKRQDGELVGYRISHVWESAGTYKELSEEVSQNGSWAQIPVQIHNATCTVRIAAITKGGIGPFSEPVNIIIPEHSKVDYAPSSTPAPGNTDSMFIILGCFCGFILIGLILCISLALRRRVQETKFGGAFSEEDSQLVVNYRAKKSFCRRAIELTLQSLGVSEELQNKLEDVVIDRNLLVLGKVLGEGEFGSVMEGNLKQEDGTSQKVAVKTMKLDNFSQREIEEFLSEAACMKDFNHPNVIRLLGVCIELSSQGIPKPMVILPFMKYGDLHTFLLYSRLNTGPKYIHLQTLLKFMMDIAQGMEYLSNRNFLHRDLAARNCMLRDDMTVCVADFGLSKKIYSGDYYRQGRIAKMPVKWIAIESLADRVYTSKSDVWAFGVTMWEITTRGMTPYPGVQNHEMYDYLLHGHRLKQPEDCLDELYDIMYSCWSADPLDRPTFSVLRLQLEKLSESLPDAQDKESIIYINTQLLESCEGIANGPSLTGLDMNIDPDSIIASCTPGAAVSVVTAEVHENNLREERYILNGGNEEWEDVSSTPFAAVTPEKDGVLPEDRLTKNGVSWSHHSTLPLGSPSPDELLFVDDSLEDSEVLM
Procedure: Compounds were reconstituted in DMSO to make 10 mM stock solutions. RAW264 cells were maintained in DMEM medium containing 10% FBS. Cells were seeded into 6-well plates with 2×10^6 cells per well. 2 μL of diluted compounds were added to cells to the final concentration of 0.001-1 μM. After a 4 hour-incubation at 37° C., cells were washed with DPBS (1×) once. Then RIPA lysis buffer with Halt Protease and Phosphatase Inhibitor Cocktail was added directly to the cells and cells were then incubated on ice for 10 min, then lysate was harvested into 1.5 mL Eppendorf tubes and centrifuged at 14,000 rpm for 10 min at 4° C. and the supernatants were collected for Western blots.
The protein concentration of cell lysates was quantified with Pierce™ BCA Protein Assay Kit. […] BCA working reagents were prepared by mixing BCA reagent A with reagent B in 50: 1 ratio. 200 μL of the BCA working reagents were added to 25 μL of BCA standard or cell lysates in microplate, and mixed thoroughly on a plate shaker for 30 seconds. After incubation at 37° C. for 30 min, the absorbance of samples at 562 nm were measured with EnVision Plate Reader.
Protein lysates were prepared in NuPAGE™ LDS sample buffer and NuPAGE™ sample reducing agent, and incubated at 95° C. for 5 min. […] The proteins were transferred to low fluorescence PVDF membranes using the Trans-Blot Turbo Transfer System. Membranes were then blocked in Odyssey blocking buffer at RT for 1 h followed by primary incubation at 4° C. overnight. The primary antibodies were MerTK goat polyclonal antibody and actin mouse monoclonal antibody. Membranes were washed three times with TBST (1×), and then incubated with IR Dye 800 CW Donkey anti-goat and IR Dye 700 CW Goat anti-mouse secondary antibodies in 1:10,000 dilution at RT for 1 h. The Western blot images were obtained using Odyssey Imaging System.

MerTK [2] = target: T2, MerTK (Homo sapiens, UniProt Q12866); assay: MerTk degradation in Jurkat cells (Western blot); format: cell-based; conditions: Jurkat, 4 h, 0.001-1 μM, 4 hour-incubation at 37° C., read-out: Jurkat Max % MerTK Degradation
T2 construct: endogenous in cells; host or cells: Jurkat cells
T2 sequence (Q12866 21-999): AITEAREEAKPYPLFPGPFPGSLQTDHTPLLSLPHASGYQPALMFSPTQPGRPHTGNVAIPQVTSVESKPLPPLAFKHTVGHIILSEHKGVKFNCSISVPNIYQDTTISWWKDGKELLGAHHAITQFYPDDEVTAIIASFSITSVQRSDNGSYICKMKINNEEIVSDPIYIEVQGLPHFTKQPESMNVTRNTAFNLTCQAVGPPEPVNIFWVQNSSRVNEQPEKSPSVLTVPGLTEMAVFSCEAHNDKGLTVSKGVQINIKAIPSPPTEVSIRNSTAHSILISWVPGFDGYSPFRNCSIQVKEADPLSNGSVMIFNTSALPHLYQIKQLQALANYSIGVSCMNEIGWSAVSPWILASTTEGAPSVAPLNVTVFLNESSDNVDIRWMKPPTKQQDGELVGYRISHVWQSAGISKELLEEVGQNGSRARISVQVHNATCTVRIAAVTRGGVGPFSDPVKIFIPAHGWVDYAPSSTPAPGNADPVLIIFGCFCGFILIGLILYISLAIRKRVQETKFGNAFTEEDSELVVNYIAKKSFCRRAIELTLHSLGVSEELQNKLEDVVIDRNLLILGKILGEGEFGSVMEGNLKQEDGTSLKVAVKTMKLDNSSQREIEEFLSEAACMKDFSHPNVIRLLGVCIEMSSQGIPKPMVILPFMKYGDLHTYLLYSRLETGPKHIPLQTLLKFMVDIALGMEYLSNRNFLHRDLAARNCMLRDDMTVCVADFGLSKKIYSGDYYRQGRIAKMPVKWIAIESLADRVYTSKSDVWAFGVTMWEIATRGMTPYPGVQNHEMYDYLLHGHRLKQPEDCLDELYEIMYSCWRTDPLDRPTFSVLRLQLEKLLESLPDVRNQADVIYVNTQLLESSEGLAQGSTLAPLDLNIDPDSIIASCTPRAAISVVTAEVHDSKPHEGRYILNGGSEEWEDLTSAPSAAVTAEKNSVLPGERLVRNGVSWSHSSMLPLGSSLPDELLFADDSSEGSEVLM
Outline: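 MerTK degradation was read by near-infrared Western blot, normalized to actin, in BCA-quantified lysates of Jurkat cells exposed to 0.001-1 μM compound for 4 h at 37 °C.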

Dmax (MerTK [1])	Dmax (MerTK [2])	Structure (SMILES)
> 50%	> 50%	CCCCNc1ncc2c(-c3ccc(S(=O)(=O)N4CCN(C(=O)CCCCCCCCCCNC(=O)COc5cccc6c5C(=O)N(C5CCC(=O)NC5=O)C6=O)CC4)cc3)nn([C@H]3CC[C@H](O)CC3)c2n1 (stereo partly drawn) [I-28, N-(11-(4-((4-(6-(Butylamino)-1-(trans-4-hydroxycyclohexyl)-1H-pyrazolo[3,4-d]pyrimidin-3-yl)phenyl)sulfonyl)piperazin-1-yl)-11-oxoundecyl)-2-((2-(2,6-dioxopiperidin-3-yl)-1,3-dioxoisoindolin-4-yl)oxy)acetamide]
> 50%	> 50%	CCCCNc1ncc2c(-c3ccc(S(=O)(=O)N4CCN(C(=O)NCCCOCCCOCCCc5cccc6c5n(C)c(=O)n6C5CCC(=O)NC5=O)CC4)cc3)nn([C@H]3CC[C@H](O)CC3)c2n1 (stereo partly drawn) [I-29, 4-((4-(6-(Butylamino)-1-(trans-4-hydroxycyclohexyl)-1H-pyrazolo[3,4-d]pyrimidin-3-yl)phenyl)sulfonyl)-N-(3-(3-(3-(1-(2,6-dioxopiperidin-3-yl)-3-methyl-2-oxo-2,3-dihydro-1H-benzo[d]imidazol-4-yl)propoxy)propoxy)propyl)piperazine-1-carboxamide]
> 50%	> 50%	CCCCNc1ncc2c(-c3ccc(CN4CCN(CCOCCOCCOCCOCCNc5cccc6c5n(C)c(=O)n6C5CCC(=O)NC5=O)CC4)cc3)nn([C@H]3CC[C@H](O)CC3)c2n1 (stereo partly drawn) [I-37, trans-3-(4-[15-[4-([4-[6-(butylamino)-1-[4-hydroxycyclohexyl]-1H-pyrazolo[3,4-d]pyrimidin-3-yl]phenyl]methyl)piperazin-1-yl]-4,7,10,13-tetraoxa-1-azapentadecan-1-yl]-3-methyl-2-oxo-2,3-dihydro-1H-1,3-benzodiazol-1-yl)piperidine-2,6-dione]
> 50%	> 50%	CCCCNc1ncc2c(-c3ccc(CN4CCN(CCOCCOCCOCCOCCCc5ccc6c(c5)n(C)c(=O)n6C5CCC(=O)NC5=O)CC4)cc3)nn([C@H]3CC[C@H](O)CC3)c2n1 (stereo partly drawn) [I-38, trans-3-(5-[1-[4-([4-[6-(butylamino)-1-[4-hydroxycyclohexyl]-1H-pyrazolo[3,4-d]pyrimidin-3-yl]phenyl]methyl)piperazin-1-yl]-3,6,9,12-tetraoxapentadecan-15-yl]-3-methyl-2-oxo-2,3-dihydro-1H-1,3-benzodiazol-1-yl)piperidine-2,6-dione]
> 50%	> 50%	CCCCNc1ncc2c(-c3ccc(CN4CCN(CCOCCOCCOCCCc5ccc6c(c5)n(C)c(=O)n6C5CCC(=O)NC5=O)CC4)cc3)cn([C@H]3CC[C@H](O)CC3)c2n1 (stereo partly drawn) [I-40, 3-(5-[3-[2-(2-[2-[4-([4-[2-(Butylamino)-7-[trans-4-hydroxycyclohexyl]-7H-pyrrolo[2,3-d]pyrimidin-5-yl]phenyl]methyl)piperazin-1-yl]ethoxy]ethoxy)ethoxy]propyl]-3-methyl-2-oxo-2,3-dihydro-1H-1,3-benzodiazol-1-yl)piperidine-2,6-dione formic acid]
